The source of these data is the Deep4Chem optical property database.

SMILES strings stand for the structures.

The series is described as follows: solvent given as SMILES.
[1] abbreviates: in O=P(c1ccccc1)(c1ccccc1)c1ccccc1Oc1ccccc1P(=O)(c1ccccc1)c1ccccc1.

For `c1ccc(-c2nc(-c3ccccc3)nc(-c3ccc(-n4c5ccccc5c5cc6c(cc54)C(c4ccccc4)(c4ccccc4)c4ccccc4-6)cc3)n2)cc1`, the emission maximum was determined as 494.27 nm (in C1CCOC1); 400.55 nm (in CCCCCC); 442 nm (in Cc1ccccc1); 519.15 nm (in ClCCl); 471 nm under setting [1].
Regarding `CC(C)[Si](C#Cc1c2cc3ccccc3cc2c(C#Cc2ccccc2)c2cc3ccccc3cc12)(C(C)C)C(C)C`, the emission maximum (in ClCCl) is 661 nm.
As to `CN1C(=CC2=C([O-])C(=CC3=[N+](C)c4ccccc4C3(C)C)C2=C2C(=O)NC(=O)NC2=O)C(C)(C)c2ccccc21`, the emission maximum (in ClC(Cl)Cl) is on record as 665 nm.
As to `Nc1ccc2nc3c4ccccc4c(=[NH2+])cc-3oc2c1`, the emission maximum (in CCO) is given as 619 nm.
As for `CC1(C)c2ccccc2-n2c(-c3ccc(-n4c5ccc(-n6c7ccccc7c7ccccc76)cc5c5cc(-n6c7ccccc7c7ccccc76)ccc54)cc3)nc3cccc1c32`, the emission maximum (in Cc1ccccc1) turned out to be 401 nm and the emission maximum under setting [1] was 409 nm.
Consider `COc1ccc(-c2cccc3ncc(-c4ccc(C#N)cc4)n23)cc1`, for which the emission maximum (in ClCCl) is on record as 447 nm.
The molecule `CCCCCCOc1cc2cc(=O)oc3ccc4cccc1c4c23` returned an emission maximum (in CC1CCCO1) of 468 nm.
As for `CC(=O)c1ccc(-c2nc3ccc(N(C)C)cc3s2)cc1`, the emission maximum is reported as 435 nm (in C1CCCCC1); 588 nm (in CC#N); 611.34 nm (in CC(C)O); 676 nm (in CO); 587.85 nm (in CS(C)=O); 524 nm (in ClC(Cl)Cl). Under “in c1ccccc1”, this molecule yielded an emission maximum of 487.85 nm.
In the case of `c1ccc(N(c2ccccc2)c2ccc(-c3cccc4nc5ccccc5cc34)cc2)cc1`, the emission maximum runs as follows: (in C1CCOC1) 535 nm; (in CC#N) 572 nm; (in CC(C)OC(C)C) 496 nm; (in CCCCCC) 462 nm; (in CCCCOCCCC) 491 nm; (in CCN(CC)CC) 479 nm. For the same molecule, the emission maximum reads like this: (in CCOC(C)=O) 532 nm; (in CCOCC) 507 nm; (in CN(C)C=O) 566 nm; (in ClCCl) 555 nm.
In the case of `Fc1c(F)c(-n2c3ccccc3c3ccccc32)c(F)c(F)c1/C=C/C(=C(c1ccccc1)c1ccccc1)c1ccccc1`, the emission maximum (in Cc1ccccc1) was 445 nm.
`CSC1=C2C=C(c3cc4n(c3)[B-](F)(F)[N+]3=CC=CC3=C4c3c(C)cc(C)cc3C)C(C)=[N+]2[B-](F)(F)n2c(C)ccc21`: the emission maximum reads like this: (in C1CCCCC1) 652 nm; (in CC#N) 740 nm; (in CC(C)=O) 694 nm; (in CCOC(C)=O) 664 nm; (in Cc1ccccc1) 663 nm.
The molecule `COc1cc(-c2cnc(-c3cnc4ccccc4c3)o2)cc(OC)c1OC` gave an emission maximum (in ClCCl) of 458 nm.
`F[B-]1(F)n2c(-c3ccccc3)cc(-c3ccccc3)c2C=C2C(c3ccccc3)=CC(c3ccccc3)=[N+]21`: where the note is “in C1CCOC1”, the emission maximum stood at 601 nm.
Take `C[C@]12SC(=O)C=C1c1nc(-c3ccc(Cl)cc3Cl)[nH]c1C1=CC(=O)S[C@@]12C`: the emission maximum (in CC#N) was 500 nm.
For `N#CC1=C(N)n2c(=O)c3ccccc3c(=O)n2C1c1cccs1` (centres undefined), the emission maximum (in CS(C)=O) was 446 nm.
Take `N#Cc1ccc(C#Cc2ccc3ccc4ccc(C#Cc5ccc(C#N)cc5)c5ccc2c3c45)cc1`: the emission maximum amounted to 443.3 nm (in C1COCCO1); 445.8 nm (in CC(C)=O); 435.5 nm (in CCCCCC); 448 nm (in CCCCCCO); 445.5 nm (in CCO); 442.4 nm (in CCOC(C)=O). Besides, the emission maximum (in CO) turned out to be 445.3 nm, the emission maximum (in Cc1ccccc1) was 446.4 nm and the emission maximum (in ClCCl) was 448.8 nm.
In turn, `CCN(CC)c1ccc(/C=N/CC/N=C/c2ccc(N(CC)CC)cc2O)c(O)c1` displayed an emission maximum (in CC#N) of 415 nm, an emission maximum (in CN(C)C=O) of 433 nm and an emission maximum (in ClCCl) of 432 nm.
Consider `CCn1c(-c2ccc(-c3ccc4ccc5cccc6ccc3c4c56)cc2)c(-c2ccc3ccccc3c2)c(-c2ccc3ccccc3c2)c1-c1ccc(-c2ccc3ccc4cccc5ccc2c3c45)cc1`, for which, under “in CCOC(C)=O”, the emission maximum was 460 nm.
Consider `CCC1=C(C)C(=O)n2c1cc1c(c(C)c(C(=O)OC)n1C)c2=O`, for which the emission maximum runs as follows: (in C1CCCCC1) 435 nm; (in CO) 501 nm; (in CS(C)=O) 482 nm; (in ClC(Cl)Cl) 455 nm; (in c1ccccc1) 447 nm.
For the setting “in ClC(Cl)Cl”, `Cc1cc(C)c(C2=C3C=CC(c4ccc5ccccc5c4)=[N+]3[B-](F)(F)n3c2ccc3-c2ccc3ccccc3c2)c(C)c1` registered an emission maximum of 618 nm.
`COc1c2ccccc2c(OC)c2c1c1c(F)cccc1n2C` had an emission maximum (in C1CCCCC1) of 411 nm, an emission maximum (in CC#N) of 421 nm, an emission maximum (in CO) of 417 nm and an emission maximum (in ClCCl) of 418 nm.
Turning to `Cc1cccc2[n+]1[B-](c1ccccc1)(c1ccccc1)c1cccc3c4c5c(cccc5c-2c13)[B-](c1ccccc1)(c1ccccc1)[n+]1c(C)cccc1-4`, the emission maximum (in ClCCl) came to 611 nm.
For the molecule `CCC(C)(C)c1ccc2c(c1)C(CC)(CC)c1cc(-c3ccc4c(c3)C(CC)(CC)c3cc(C(C)(C)CC)ccc3-4)ccc1-2`, the emission maximum (in C1CCCCC1) turned out to be 371 nm.
`C#CCn1c2ccccc2c2cc(/C=C/C3=[N+]4C(=C(c5ccc(I)cc5)c5c(C)c(Cl)c(/C=C/c6ccc7c(c6)c6ccccc6n7CC#C)n5[B-]4(F)F)C(C)=C3Cl)ccc21`: the emission maximum reads like this: (in CC#N) 731 nm; (in CS(C)=O) 749 nm; (in ClC(Cl)Cl) 730 nm.
Molecule `COc1ccc(C#Cc2c(C#Cc3ccc(OC)cc3)c(C#Cc3ccc(OC)cc3)c(C#Cc3ccc(OC)cc3)c(C#Cc3ccc(OC)cc3)c2C#Cc2ccc(OC)cc2)cc1` returned an emission maximum (in ClCCl) of 466 nm.
Under “in ClCCl”, `CC1=C(I)C(C)=[N+]2C1=C(c1c(-c3ccccn3)nc3ccccn13)c1c(C)c(I)c(C)n1[B-]2(F)F` had an emission maximum of 580 nm.
As for `C[N+]1=C(/C=C/C2=C3Oc4c(cc5c6c4CCCN6CCC5)C(c4ccccc4C(=O)O)=C3CCC2)C(C)(C)c2ccccc21`, the emission maximum by setting is: (in CC#N) 760 nm; (in CCO) 745 nm; (in CO) 749 nm; (in ClC(Cl)Cl) 757 nm.
Turning to `CC(C)[Si](C#Cc1c2nsnc2c(C#C[Si](C(C)C)(C(C)C)C(C)C)c2nc3c(nc12)Cc1ccccc1-3)(C(C)C)C(C)C`, for the setting “in CCCCCC”, the emission maximum is recorded as 551 nm.
For `COc1ccc(-c2nc3ccccc3nc2-c2ccc(OC)cc2)cc1`, the emission maximum reads like this: (in C1CCOC1) 432 nm; (in CC#N) 435 nm; (in CCCCCC) 423 nm; (in CN(C)C=O) 432 nm; (in Cc1ccccc1) 426 nm; (in ClC(Cl)Cl) 430 nm.
The molecule `CCCCN(CCCC)c1ccc(C#Cc2cc(C#Cc3ccc(C#N)cc3)c(C#Cc3ccc(N(CCCC)CCCC)cc3)cc2C#Cc2ccc(C#N)cc2)cc1` gave an emission maximum (in ClCCl) of 563 nm and an emission maximum (in c1ccccc1) of 530 nm.
The molecule `CCn1c(-c2ccc(-c3ccc(-c4ccc(-c5n(CC)c6ccccc6[n+]5CC)cc4)cc3)cc2)[n+](CC)c2ccccc21` displayed an emission maximum (in O) of 397 nm.
`CCCCN(CCCC)c1ccc(/C=C/c2ccc3nc(/C=C/c4ccc(N(C)C)cc4)c(=O)n(CCC)c3c2)cc1`: the emission maximum by setting is: (in C1COCCO1) 559 nm; (in CC#N) 651 nm; (in ClCCl) 611 nm.
In the case of `O=C1c2ccccc2-c2c(-c3cc(Br)ccc3O)[nH]c(=O)n21`, the emission maximum runs as follows: (in CC#N) 475 nm; (in CO) 492 nm; (in ClCCl) 474 nm.
`O=c1oc2ccccc2cc1-c1ccc(-c2ccc(-c3cc4ccccc4oc3=O)cc2)cc1` showed an emission maximum (in ClCCl) of 430 nm.
The molecule `COc1nc(Nc2ccc3ccc4cccc5ccc2c3c45)nc(OC)n1` gave an emission maximum (in CC#N) of 390 nm, an emission maximum (in CCCCOCCCC) of 388 nm and an emission maximum (in CO) of 388 nm.
In turn, `CN(C)c1cc2c(cc1F)c(=O)c1cc(F)c(N3CCCCC3)cc1n2C` gave an emission maximum (in CCO) of 443 nm.
For the molecule `CC1(C)C(/C=C/C2=C(Cl)C(=C/C=C3/N(Cc4ccccc4)c4ccccc4C3(C)C)/CCC2)=[N+](Cc2ccccc2)c2ccccc21`, where the note is “in CO”, the emission maximum is 813 nm.
As to `CN(C)c1ccc2nc(-c3ccc(C(=O)OC[C@H](NC(=O)OC(C)(C)C)C(=O)OCc4ccccc4)cc3)sc2c1`, the emission maximum is, setting by setting: (in C1CCCCC1) 456 nm; (in CC#N) 568 nm; (in CC(C)O) 558 nm; (in CO) 577 nm; (in CS(C)=O) 583 nm; (in ClC(Cl)Cl) 504 nm. Also, the emission maximum (in c1ccccc1) worked out at 484 nm.
Regarding `Cc1cc(=O)oc2c3c4c(cc12)CCCN4CCC3`, the emission maximum runs as follows: (in C1CCCCC1) 407 nm; (in CC#N) 450 nm; (in CCO) 473 nm; (in O) 489 nm.
For the molecule `CCCN1c2ccccc2Sc2cc(/C=C\c3cc(=O)oc4ccc(C)cc34)ccc21`, the emission maximum (in ClC(Cl)Cl) is 637 nm.
In turn, `CCCCCCCCCCCCn1nnc(-c2ccc(C#Cc3ccc(C#Cc4ccc(-c5nnn(CCCCCCCCCCCC)n5)cc4)c4nc5c6ccccc6c6ccccc6c5nc34)cc2)n1` came in with an emission maximum (in C1CCOC1) of 495 nm, an emission maximum (in Cc1ccccc1) of 488 nm and an emission maximum (in ClCCl) of 502 nm.
In turn, `C=CC1CN2CCC1CC2[C@H](O)c1ccnc2ccc(OC)cc12` (some centres undefined) showed an emission maximum (in O) of 451 nm.
The molecule `CN(C)c1ccccc1` yielded an emission maximum (in C1CCCCC1) of 339.9 nm.
In the case of `C[n+]1ccn(CCCCc2ccc3c(c2)c2ccccc2n3-c2cc(C#N)c(C#N)cc2-n2c3ccccc3c3cc(CCCCn4cc[n+](C)c4)ccc32)c1`, under “in CC#N”, the emission maximum is 572 nm.
In turn, `Nc1ccccc1/C=C/C(F)(F)F` came in with an emission maximum (in C1CCOC1) of 427 nm.
